“And” between values parts separate entries of the source, which are not always exact repeats. Equal values may be shown once.
Columns and labels:
[1] = test system: Lp(a); assay: Lp(a) levels in cynomolgus monkeys; assay type: in vivo, cynomolgus monkey (Macaca fascicularis); design: key to Mean_pCFB_vs_Veh / Mean_pCFB_vs_Veh (Lp(a)): % change from pre-dose, treated group compared with vehicle; key to Mean_pCFB / Mean_pCFB (Lp(a)): % change in Lp(a) from before dosing; Lp(a): unit not given here; conditions: for Mean_pCFB_vs_Veh (Lp(a)) / Mean_pCFB (Lp(a)) / Lp(a) / pCFB (Lp(a) pct_chng_from_baseline): cynomolgus monkey; for Mean_pCFB_vs_Veh (Lp(a)): difference vs vehicle; for Mean_pCFB (Lp(a)): group mean; for Lp(a) / pCFB (Lp(a) pct_chng_from_baseline): individual animals
Description: Female or male Chinese Macaca fascicularis cynomolgus monkeys (as described in the figure legends) of unspecified ages with body weight ranging from 2.0 kg to 5.0 kg were housed in cages with a standard light cycle (12-h light, 12-h dark) at room temperature (20–26 °C); the relative humidity ranged from 30% to 70%. Monkeys were given fruits, vegetables or dietary enrichment as a form of environmental enrichment, and various cage enrichment devices. Purina Lab diet 5048C was provided BID and individual monkeys were identified by cage card. The monkeys were randomized to treatment groups by body weight and baseline plasma Lp(a) concentration, as determined by a commercially available Randox assay (Randox LP2757), using a BRAT for the study. In an example cynomolgus monkey study in which 39 monkeys were prescreened for baseline Lp(a) levels, the average Lp(a) level was 350 ± 57 µg ml^−1 (range 53–1,667 µg ml^−1). Monkeys were dosed orally with vehicle (purified water) or compounds QD or BID for 14 days, at dose levels and frequencies as previously described for each compound. Plasma samples were collected on days before dosing to establish baseline Lp(a) and after the morning dose during the study. Lp(a) levels were measured by an investigator who was blinded to group allocation using the Randox assay, and were quantified relative to the calibrator series (Randox LP3404). Data were analysed in GraphPad Prism v.9.5.1. The Lp(a) percentage change from before dosing in non-human primates was analysed by repeated measures ANOVA in SAS v.9.4 (SAS). At each time point, the Lp(a) percentage change for each treated group was compared with vehicle by the Bonferroni method.

[2] = target: T1, apo(a) KIV8 (Homo sapiens, UniProt P08519); assay: ITC binding to apo(a) KIV8
T1 construct: made in house
T1 sequence (P08519 1387-1465 limits assumed): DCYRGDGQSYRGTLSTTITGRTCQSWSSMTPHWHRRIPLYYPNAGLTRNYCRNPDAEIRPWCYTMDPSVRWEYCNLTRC
Description: The nucleotide sequence encoding the human LPA gene (NP_005568.2) was inserted into a mammalian expression vector containing a cytomegalovirus promoter. Protein expression was performed by transient transfection of human embryonic kidney 293 (HEK293) cells cultured in serum-free medium. The culture medium was collected five days after transfection and human apo(a) protein was purified using L-lysine affinity chromatography. Nucleotide sequences encoding various KIV domains of human apo(a) and human and rat plasminogen were inserted into a pET21a Escherichia coli expression vector. Bacterial BL21(DE3) was used as the expression host, and the induction of protein expression was performed in 2× TY medium with 1 mM isopropyl β-D-1-thiogalactopyranoside at 37 °C for 5 h. Cells were collected and stored at –80 °C for subsequent protein purification and refolding. […] All protein concentrations were determined by A280.
Experiments were performed on a MicroCal Auto-iTC200 titration calorimeter (Malvern Panalytical), with a cell volume of 200 μl and a 40-μl microsyringe. […] The microsyringe was loaded with a solution of the respective compounds, with the concentration measured by quantitative nuclear magnetic resonance, and was inserted into the calorimetric cell prefilled with the respective recombinant proteins of known concentration in ITC buffer. […]

Kd [2]: 22 nM
SMILES: O=C(O)[C@@H](Cc1cccc(CN(Cc2cccc(C[C@H](C(=O)O)[C@H]3CCNC3)c2)Cc2cccc(C[C@H](C(=O)O)[C@H]3CCNC3)c2)c1)[C@H]1CCNC1 [LY3473329]
Mean_pCFB_vs_Veh (Lp(a)) ([1]; 1mpk, D01): 4.27 | Mean_pCFB_vs_Veh (Lp(a)) ([1]; 1mpk, D03): -6.51 | Mean_pCFB_vs_Veh (Lp(a)) ([1]; 1mpk, D05): -6.39 | Mean_pCFB_vs_Veh (Lp(a)) ([1]; 1mpk, D09): -13.72 | Mean_pCFB_vs_Veh (Lp(a)) ([1]; 1mpk, D14): -22.18 | Mean_pCFB_vs_Veh (Lp(a)) ([1]; 10mpk, D01): 3.91 | Mean_pCFB_vs_Veh (Lp(a)) ([1]; 10mpk, D03): -29.92 | Mean_pCFB_vs_Veh (Lp(a)) ([1]; 10mpk, D05): -32.94 | Mean_pCFB_vs_Veh (Lp(a)) ([1]; 10mpk, D09): -36.99 | Mean_pCFB_vs_Veh (Lp(a)) ([1]; 10mpk, D14): -48.11 | Mean_pCFB_vs_Veh (Lp(a)) ([1]; 100mpk, D01): -15.98 | Mean_pCFB_vs_Veh (Lp(a)) ([1]; 100mpk, D03): -38.35 | Mean_pCFB_vs_Veh (Lp(a)) ([1]; 100mpk, D05): -32.35 | Mean_pCFB_vs_Veh (Lp(a)) ([1]; 100mpk, D09): -50.18 | Mean_pCFB_vs_Veh (Lp(a)) ([1]; 100mpk, D14): -61.77 | Mean_pCFB (Lp(a)) ([1]; 1mpk, D01): -0.85 | Mean_pCFB (Lp(a)) ([1]; 1mpk, D03): -12.33 | Mean_pCFB (Lp(a)) ([1]; 1mpk, D05): -14.05 | Mean_pCFB (Lp(a)) ([1]; 1mpk, D09): -21.85 | Mean_pCFB (Lp(a)) ([1]; 1mpk, D14): -34.04 | Mean_pCFB (Lp(a)) ([1]; 10mpk, D01): -1.2 | Mean_pCFB (Lp(a)) ([1]; 10mpk, D03): -35.74 | Mean_pCFB (Lp(a)) ([1]; 10mpk, D05): -40.6 | Mean_pCFB (Lp(a)) ([1]; 10mpk, D09): -45.13 | Mean_pCFB (Lp(a)) ([1]; 10mpk, D14): -59.97 | Mean_pCFB (Lp(a)) ([1]; 100mpk, D01): -21.09 | Mean_pCFB (Lp(a)) ([1]; 100mpk, D03): -44.17 | Mean_pCFB (Lp(a)) ([1]; 100mpk, D05): -40.01 | Mean_pCFB (Lp(a)) ([1]; 100mpk, D09): -58.32 | Mean_pCFB (Lp(a)) ([1]; 100mpk, D14): -73.62 | Lp(a) ([1]; 1mpk group, Day 1, Pre dose (baseline), 1 mg/kg): 115.019 and 15.737 and 53.63 and 67.735 and 63.938 | Lp(a) ([1]; 1mpk, Day 1, 4hr, 1 mg/kg): 97.491 and 117.597 and 16.395 and 53.808 and 66.137 and 65.184 | pCFB (Lp(a) pct_chng_from_baseline) ([1]; 1mpk, Day 1, 1 mg/kg): -11.4161 and 2.241 and 4.181 and 0.3319 and -2.359 and 1.949 | Lp(a) ([1]; 1mpk, Day 3, 4hr, 1 mg/kg): 91.721 and 112.368 and 11.704 and 47.474 and 63.489 and 56.499 | pCFB (Lp(a) pct_chng_from_baseline) ([1]; 1mpk, Day 3, 1 mg/kg): -16.6589 and -2.305 and -25.6275 and -11.4787 and -6.269 and -11.6347 | Lp(a) ([1]; 1mpk, Day 5, 4hr, 1 mg/kg): 85.692 and 109.155 and 11.192 and 45.131 and 70.165 and 53.752 | pCFB (Lp(a) pct_chng_from_baseline) ([1]; 1mpk, Day 5, 1 mg/kg): -22.1371 and -5.098 and -28.881 and -15.8475 and 3.588 and -15.9311 | Lp(a) ([1]; 1mpk, Day 9, 4hr, 1 mg/kg): 81.717 and 123.954 and 9.293 and 31.114 and 64.385 | pCFB (Lp(a) pct_chng_from_baseline) ([1]; 1mpk, Day 9, 1 mg/kg): -25.7489 and 7.768 and -40.9481 and -41.984 and -4.946 and -25.2635 | pCFB (Lp(a) pct_chng_from_baseline) ([1]; 1mpk, Day 14, 1 mg/kg): -43.1939 and -2.975 and -53.0914 and -46.914 and -15.7924 and -42.2472 | Lp(a) ([1]; 10mpk group, Day 1, Pre dose (baseline), 10 mg/kg): 63.144 and 63.676 and 112.151 and 49.481 and 65.725 and 30.09 | pCFB (Lp(a) pct_chng_from_baseline) ([1]; 10mpk, Day 1, 10 mg/kg): -0.54 and 5.215 and -3.008 and -7.112 and -1.928 and 0.1728 | pCFB (Lp(a) pct_chng_from_baseline) ([1]; 10mpk, Day 3, 10 mg/kg): -40.1463 and -31.9398 and -31.5575 and -28.9606 and -53.8653 and -27.9495 | Lp(a) ([1]; 10mpk, Day 5, 4hr, 10 mg/kg): 69.663 and 26.971 and 31.738 and 21.72 | pCFB (Lp(a) pct_chng_from_baseline) ([1]; 10mpk, Day 5, 10 mg/kg): -39.4923 and -41.2165 and -37.8846 and -45.4922 and -51.7109 and -27.8166 | Lp(a) ([1]; 10mpk, Day 9, 4hr, 10 mg/kg): 37.879 and 46.471 and 59.699 and 19.275 and 28.08 and 18.466 | pCFB (Lp(a) pct_chng_from_baseline) ([1]; 10mpk, Day 9, 10 mg/kg): -40.0117 and -27.0196 and -46.7691 and -61.0457 and -57.2765 and -38.6308 | Lp(a) ([1]; 10mpk, Day 14, 4hr, 10 mg/kg): 27.525 and 31.412 and 53.912 and 14.404 and 16.367 and 13.601 | pCFB (Lp(a) pct_chng_from_baseline) ([1]; 10mpk, Day 14, 10 mg/kg): -56.4092 and -50.669 and -51.9291 and -70.8898 and -75.0978 and -54.7989 | Lp(a) ([1]; 100mpk group, Day 1, Pre dose (baseline), 100 mg/kg): 63.503 and 134.003 and 31.483 and 50.567 and 61.834 | Lp(a) ([1]; 100mpk, Day 1, 4hr, 100 mg/kg): 57.552 and 102.207 and 18.95 and 36.698 and 61.471 | pCFB (Lp(a) pct_chng_from_baseline) ([1]; 100mpk, Day 1, 100 mg/kg): -39.8088 and -27.427 and -0.5871 and -9.371 and -23.7278 | Lp(a) ([1]; 100mpk, Day 3, 4hr, 100 mg/kg): 37.977 and 67.885 and 16.507 and 23.074 and 46.465 | pCFB (Lp(a) pct_chng_from_baseline) ([1]; 100mpk, Day 3, 100 mg/kg): -47.5685 and -54.3695 and -24.8553 and -40.1965 and -49.3407 | Lp(a) ([1]; 100mpk, Day 5, 4hr, 100 mg/kg): 41.338 and 90.201 and 17.421 and 23.304 and 43.695 | pCFB (Lp(a) pct_chng_from_baseline) ([1]; 100mpk, Day 5, 100 mg/kg): -32.6873 and -44.6654 and -53.9146 and -29.335 and -34.9039 | Lp(a) ([1]; 100mpk, Day 9, 4hr, 100 mg/kg): 23.771 and 69.54 and 11.012 and 15.587 and 35.753 | pCFB (Lp(a) pct_chng_from_baseline) ([1]; 100mpk, Day 9, 100 mg/kg): -48.1056 and -65.0224 and -69.1755 and -42.1791 and -62.5671 | Lp(a) ([1]; 100mpk, Day 14, 4hr, 100 mg/kg): 22.568 and 43.526 and 4.973 and 14.913 and 14.296 | pCFB (Lp(a) pct_chng_from_baseline) ([1]; 100mpk, Day 14, 100 mg/kg): -67.5186 and -84.2042 and -70.5084 and -76.88 and -64.4615 | reduction of median Lp(a) levels compared with baseline ([1]; cynomolgus monkeys, 100 mg kg^−1 QD): up to 71%
